According to PubChem BioAssay AID1996:
Converted amounts (≈) assume the structure as drawn.

details: buffer; pH 7.4; 200.0 µM

Compound	solubility kinetic
Cc1c(C(=O)NC2CCC(C)CC2)oc2ccccc12 (configuration not stated)	0.7 µg/mL (≈ 2.58 µM)
Cc1c(Cl)cccc1NC(=O)CCC(=O)c1cccs1	11.9 µg/mL (≈ 38.7 µM)
CS(=O)(=O)c1ccc(Cl)c(NC(=O)CCN2C(=O)NC3(CCCC3)C2=O)c1	> 62.1 µg/mL
COc1ccc(Nc2nc(C)cc(C)c2C#N)c(OC)c1	< 0.2 µg/mL
Cc1ccc(NC(=O)NCc2cccn2C)cc1C	2.2 µg/mL (≈ 8.55 µM)
CCC(=O)c1ccc(OC(=O)N2CCOCC2)cc1	> 39.5 µg/mL
Cc1ccc(CN2C(=O)c3ccccc3NC2c2ccccn2)cc1 (configuration not stated)	> 49.4 µg/mL
CCOC(=O)C1CCN(c2c(NCCC(C)C)c(=O)c2=O)CC1	> 48.4 µg/mL
COc1cccc(C(=O)Oc2ccc(N3C(=O)CCC3=O)c(C)c2)c1	> 50.9 µg/mL
c1ccc(SSc2ccccn2)nc1	25.5 µg/mL (≈ 116 µM)
CN(C)CCCn1c(=S)[nH]c2sc3c(c2c1=O)CCCC3	> 48.5 µg/mL
Cc1cc(C)c(C#N)c(N)n1	> 22.1 µg/mL
Cc1cc(NC(=O)COC(=O)C2CCC(=O)N2)c([N+](=O)[O-])cc1C (configuration not stated)	> 50.3 µg/mL
COc1ccccc1CNC(=O)COC(=O)Cc1ccc(Br)cc1	13.7 µg/mL (≈ 34.9 µM)
COc1ccc(S(=O)(=O)NCc2cccnc2)cc1	> 41.7 µg/mL
CCN(CC)C(=O)N1CCN(C(=O)N2CCOCC2)CC1	30 µg/mL (≈ 101 µM)
COCCn1c(N)c(Sc2ccccc2)c(=O)[nH]c1=O	41.4 µg/mL (≈ 141 µM)
Cc1ccc(S(=O)(=O)NCC[C@@]2(C)C3CCC2(C)C(=O)C3)cc1 (some centres not stated)	> 50.3 µg/mL
CC(C)S(=O)(=O)c1cnc(N2CCOCC2)nc1N	> 43 µg/mL
O=C(Cc1ccccc1)NN1CCCCC1	> 32.7 µg/mL
COC(=O)CC(N)c1ccc(Br)cc1.Cl (configuration not stated)	> 44.2 µg/mL
COc1cccc2c1Oc1cc([N+](=O)[O-])cc(N(C)C(C)=O)c1C=C2	38.2 µg/mL (≈ 112 µM)
O=C(Cc1ncc(C(F)(F)F)cc1Cl)NCc1cccnc1	> 49.5 µg/mL
CC(C)CC(C(=O)N1CCOCC1)N1Cc2ccccc2C1=O (configuration not stated)	47.3 µg/mL (≈ 149 µM)
CC(C)(C)c1ccc(C(=O)NCCCNC(=O)c2cccnc2)cc1	49.2 µg/mL (≈ 145 µM)

Compound	solubility kinetic
Cc1nc(Nc2ccc3c(c2)OCCO3)c2c(C)c(C)sc2n1	3.6 µg/mL (≈ 11 µM)
CNS(=O)(=O)c1cccc(C(=O)OCC(=O)c2ccc3[nH]c(=O)[nH]c3c2)c1	> 58.4 µg/mL
Cc1cnc(C(=O)Oc2c(C)ccc(C)c2C)cn1	38.2 µg/mL (≈ 149 µM)
CCOC(=O)Cc1csc(NC(=O)Nc2cccs2)n1	18.4 µg/mL (≈ 59.1 µM)
CN(CC(=O)NCc1ccc2c(c1)OCO2)S(=O)(=O)c1ccc(Cl)cc1	8.6 µg/mL (≈ 21.7 µM)
CC(C(=O)c1c[nH]c2ccccc12)N1CCN(C(=O)c2ccco2)CC1 (configuration not stated)	> 52.7 µg/mL
COC(=O)C1C(=O)c2c(C)noc2CC1(C)C (configuration not stated)	> 35.6 µg/mL
Cc1ccc(CCC(=O)NCc2ccccc2)o1	> 36.5 µg/mL
CCC(C)[C@H](NC(=O)NCc1cccnc1)C(=O)OC (some centres not stated)	41.5 µg/mL (≈ 149 µM)
O=C(Cc1ccccc1)N1CCC2(CC1)NCCc1[nH]cnc12	43.1 µg/mL (≈ 139 µM)
CC1CCCC(NC(=O)COc2ncnc3ccccc23)C1C (configuration not stated)	44.6 µg/mL (≈ 142 µM)
CN1CCN(C(=O)CNC(=O)C23CC4CC(CC(C4)C2)C3)CC1	> 47.9 µg/mL
CCN(CC)c1nc(N2CCOCC2)nc2ccccc12.Cl	42.8 µg/mL
COc1ccccc1NC(=O)CN1CCSc2ccccc21	3.1 µg/mL (≈ 9.86 µM)
COc1ccc(C(=O)Nc2cccnc2Cl)cc1OC	42.5 µg/mL (≈ 145 µM)
O=C(NC1CCCc2ccccc21)c1ccccc1Cl (configuration not stated)	39.6 µg/mL (≈ 139 µM)
CCOC(=O)c1c(CCl)nc2ccccc2c1C.Cl	30.4 µg/mL
Cc1ccsc1C(=O)NC1CCCCC1C (configuration not stated)	> 35.6 µg/mL
Cc1ccc(S(=O)(=O)N2CCCC(N3CCOCC3)C2)cc1Cl (configuration not stated)	> 53.8 µg/mL
O=C(c1ccc2ccccc2n1)N1CCN(c2ccccn2)CC1	> 47.8 µg/mL
CC(=O)C1=C(O)C(=O)N(c2ccc(F)cc2)C1c1ccc(C)cc1 (configuration not stated)	> 48.8 µg/mL
CCOC(=O)c1sc(-c2ccc(Cl)cc2Cl)nc1O	28.2 µg/mL (≈ 88.6 µM)
Cc1cccc(N2CCN(C(=O)Cc3ccccc3[N+](=O)[O-])CC2)c1C	3.3 µg/mL (≈ 9.34 µM)
CCN1CCN(c2ncnc3scc(-c4ccc(C)c(C)c4)c23)CC1	> 52.9 µg/mL
Cn1c(SCC(=O)Nc2ccccc2[N+](=O)[O-])nnc1C(F)(F)F	> 54.2 µg/mL

Compound	solubility kinetic
CC(NC(=O)/C(C#N)=C/c1cccs1)c1ccccc1 (configuration not stated)	3.6 µg/mL (≈ 12.7 µM)
Cc1c(C(=O)CN2CCN(c3ccccc3)CC2)c2ccccc2n1C	39.6 µg/mL (≈ 114 µM)
CCn1c(NCCCO)nc2c(c1=O)C(C)(CC)Cc1ccccc1-2 (configuration not stated)	47 µg/mL (≈ 138 µM)
COc1cccc(NC(=O)Cc2ccc3ccccc3c2)c1	2.2 µg/mL (≈ 7.55 µM)
O=C(CCl)c1ccc2[nH]c(=O)oc2c1	> 31.7 µg/mL
CNC(=S)/N=C(\Nc1ccc(C)cc1)c1ccccc1	1.3 µg/mL (≈ 4.59 µM)
COc1ccc(S(=O)(=O)N2CCCC2)cc1OC	32.7 µg/mL (≈ 121 µM)
Cc1onc(-c2ccccc2)c1C(=O)Nc1ccc(Cl)cn1	3.1 µg/mL (≈ 9.88 µM)
CC(C)(C)c1cc(/C=C2\NC(=O)NC2=O)cc(C(C)(C)C)c1O	6.6 µg/mL (≈ 20.9 µM)
O=C(Nc1ccccc1)c1c2c(nc3ccccc13)CCCC2	0.5 µg/mL (≈ 1.65 µM)
Cc1nccn1-c1ccc(C=O)cc1	27.6 µg/mL (≈ 148 µM)
CC(=O)Oc1ccc2nc(/C=C/c3ccccc3)oc(=O)c2c1	0.9 µg/mL (≈ 2.93 µM)
Cc1ccc2ccc(S(=O)(=O)NCc3ccccn3)cc2c1	7 µg/mL (≈ 22.4 µM)
COC(=O)c1ccc(/C=C2\Oc3ccccc3NC2=O)cc1	1 µg/mL (≈ 3.39 µM)
CC(C)(C)c1ccc(OCC(O)CN2CCCC2)cc1.Cl (configuration not stated)	> 47.1 µg/mL
O=C(Cc1cccs1)NCc1ccc(Cl)cc1	23.5 µg/mL (≈ 88.4 µM)
O=C(c1ccc(Cl)cc1)C1CCN(Cc2ccccc2)CC1	> 47.1 µg/mL
Cc1ccnc(NC(=O)c2ccc3c(c2)OCO3)c1	> 38.4 µg/mL
Cc1cc(=O)oc2cc(OCC(=O)N3CCC(C(N)=O)CC3)ccc12	> 51.7 µg/mL
O=C(Nc1nc2ccccc2s1)c1c(F)cccc1Cl	0.6 µg/mL (≈ 1.96 µM)
O=[N+]([O-])c1ccc(OCc2cnc(Cl)s2)cc1	5.6 µg/mL (≈ 20.7 µM)
Cc1nnc(SCC(=O)c2c(N)n(C3CC3)c(=O)[nH]c2=O)n1C	> 50.5 µg/mL
CC/C(O)=C1\C(=O)CCCC1=NCCc1c(C)[nH]c2ccc(C)cc12	3.3 µg/mL (≈ 9.75 µM)
Cc1ccccc1CNC(=O)COc1ccccc1	> 38.3 µg/mL
O=[N+]([O-])c1cc(S(=O)(=O)NC2=NCCCCC2)ccc1Cl	39 µg/mL (≈ 118 µM)

Compound	solubility kinetic
CCC(=O)Nc1cccc(NC(=O)c2ccc(C)cc2Cl)c1	0.6 µg/mL (≈ 1.89 µM)
CCOc1cccc(C(=O)NC(=S)Nc2ccc3c(c2)OCCO3)c1	4 µg/mL (≈ 11.2 µM)
Cc1cc2c(c(SCC(N)=O)n1)C(=O)OC2	> 35.7 µg/mL
Cc1cc(C(=O)Nc2ccc3ccccc3c2)oc1C	3.8 µg/mL (≈ 14.3 µM)
O=C(O)c1ccc(Cl)c(NCc2ccncc2)c1	> 39.4 µg/mL
CCN(Cc1ccccc1)C(=O)CN1C(=O)c2ccccc2C1=O	> 48.4 µg/mL
COc1ccc(OCC(O)CNC(=O)Nc2ccccc2)cc1 (configuration not stated)	26.9 µg/mL (≈ 85 µM)
COc1ccc(C(NC(=O)CC(C)C)c2c(O)ccc3ccccc23)cc1 (configuration not stated)	< 0.8 µg/mL
CC1CCC/C(=C\Nc2ccc(C(=O)O)c(O)c2)C1=O (configuration not stated)	39.4 µg/mL (≈ 143 µM)
COc1cc(OC)cc(N2C(=O)CSCC2=O)c1	> 40.1 µg/mL
COc1ccccc1C1NC(=O)CCC1[N+](=O)[O-] (configuration not stated)	> 37.5 µg/mL
COc1ccc(C(C)=O)cc1COc1ccccc1[N+](=O)[O-]	< 0.6 µg/mL
COc1ccc(CCNC(=O)COC(=O)c2cncc(Br)c2)cc1OC	> 63.5 µg/mL
CCC(C)NC(=O)c1cc2c(=O)n3ccccc3nc2s1 (configuration not stated)	33 µg/mL (≈ 109 µM)
Cc1ccc(C(=O)NCc2cccnc2)o1	> 32.4 µg/mL
O=c1[nH]c(=O)n(CC2CCCO2)c(O)c1/C=C1\C=Nc2ccccc21 (configuration not stated)	> 50.9 µg/mL
CC1CCCCN1C(=O)c1cc(S(=O)(=O)N2CCOCC2)ccc1Cl (configuration not stated)	> 58 µg/mL
CN1C(=O)/C(=C\c2ccc(N(C)C)cc2)OC1=S	< 0.3 µg/mL
O=C(O)CC(SCC(=O)NC1CCCc2ccccc21)C(=O)O (configuration not stated)	> 50.6 µg/mL
COCC(C)Nc1ccc(S(=O)(=O)N2CCCC2)cc1[N+](=O)[O-] (configuration not stated)	44.2 µg/mL (≈ 129 µM)
C#CCN1C(=O)C2(OCCO2)c2ccccc21	> 34.4 µg/mL
COc1ccc(S(=O)(=O)n2cnc(C)c2)cc1	> 37.8 µg/mL
O=C(/C=C/Sc1ccc(C(F)(F)F)cn1)c1ccccc1	< 0.7 µg/mL
CCOc1cccc2cc(C(=O)NCc3ccc(F)cc3)c(=N)oc12	0.7 µg/mL (≈ 2.06 µM)
Cc1[nH]c2c(ccc3cccnc32)c1C	19.4 µg/mL (≈ 98.9 µM)

Compound	solubility kinetic
CC(OC(=O)[C@@H]1CCCN1C(=O)c1cccs1)C(=O)Nc1cccc([N+](=O)[O-])c1 (some centres not stated)	18.4 µg/mL (≈ 44.1 µM)
CCCNS(=O)(=O)c1cc2c3c(c1)CCN3C(=O)CC2	> 44.2 µg/mL
OCc1ccc(OCCCOc2cccc3cccnc23)cc1	30.5 µg/mL (≈ 98.6 µM)
COc1ccc(CCN=C(C)c2cc(C)c(C)cc2O)cc1OC	> 49.1 µg/mL
Fc1cnc(Cl)nc1N1CCN(c2ccccc2)CC1	17.4 µg/mL (≈ 59.4 µM)
Cc1c(C=C2C(=O)c3ccccc3C2=O)cc(C#N)n1C	0.6 µg/mL (≈ 2.17 µM)
CC1CC(c2ccccc2)=Nc2ccccc2N1 (configuration not stated)	26.2 µg/mL (≈ 111 µM)
CCn1c(=O)c(C(=O)Nc2ncccc2O)c(O)c2ccccc21	0.9 µg/mL (≈ 2.77 µM)
COc1ccc(CC(=O)NC(=S)Nc2cccc(CO)c2)cc1	49.3 µg/mL (≈ 149 µM)
COc1nc(N(C)C)nc(N(C)c2cc(Cl)cc(Cl)c2)n1	0.4 µg/mL (≈ 1.22 µM)
Cc1cccc2c(=O)oc(-c3ccccc3Cl)nc12	< 0.6 µg/mL
C(=N\N1CCN(c2ccccn2)CC1)/c1ccccn1	> 40.1 µg/mL
Cc1cnc(NC(=O)c2cccs2)s1	28.1 µg/mL (≈ 125 µM)
O=C(COc1ccccc1Cl)NCc1ccccc1	20.6 µg/mL (≈ 74.7 µM)
Cc1ccc(NC(=S)c2ccncc2)c(C)c1	34.2 µg/mL (≈ 141 µM)
C=CCNC(=S)N1CCc2[nH]c3ccccc3c2C1	5.5 µg/mL (≈ 20.3 µM)
CC(=O)c1csc(-c2ccccc2)n1	16.6 µg/mL (≈ 81.7 µM)
Cc1ccc(NC(=O)CCC(=O)Nc2ccc(C)cc2)cc1	< 0.3 µg/mL
Cc1ccccc1NC(=O)Nc1ccccn1	0.7 µg/mL (≈ 3.08 µM)
O=C(Nc1ccc(F)cc1)c1cc(-c2ccccc2)no1	< 0.3 µg/mL
Cn1cnnc1SCC(=O)Nc1ccccc1Oc1ccccc1	> 51.1 µg/mL
COc1ccccc1NC(=O)c1cc2c(cc1Cl)N1CCCCCC1=NS2(=O)=O	2.1 µg/mL (≈ 4.84 µM)
